From publication PMC12269308, “Martinostat as a novel HDAC inhibitor to overcome tyrosine kinase inhibitor resistance in chronic myeloid leukemia” (Clinical Epigenetics, 2025)

Key:
Details in all cases: read-out: IC50 (nM)^1 / Martinostat
HDAC11 = molecular target: T1, HDAC11 (Homo sapiens, UniProt Q96DB2); assay: fluorescence HDAC isoenzyme activity assay; assay type: biochemical
T1 sequence (Q96DB2 1-347): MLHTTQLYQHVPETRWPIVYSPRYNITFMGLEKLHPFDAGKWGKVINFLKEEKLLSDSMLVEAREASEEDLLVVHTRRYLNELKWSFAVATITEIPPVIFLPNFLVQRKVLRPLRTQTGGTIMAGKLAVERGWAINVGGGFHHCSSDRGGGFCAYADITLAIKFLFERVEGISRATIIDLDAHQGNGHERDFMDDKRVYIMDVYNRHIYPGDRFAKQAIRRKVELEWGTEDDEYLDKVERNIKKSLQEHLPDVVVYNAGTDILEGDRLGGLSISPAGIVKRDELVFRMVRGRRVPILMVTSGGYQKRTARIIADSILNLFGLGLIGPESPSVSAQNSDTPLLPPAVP

HDAC6 = molecular target: T2, HDAC6 (Homo sapiens, UniProt Q9UBN7); assay: fluorescence HDAC isoenzyme activity assay; assay type: biochemical
T2 sequence (Q9UBN7 1-1215): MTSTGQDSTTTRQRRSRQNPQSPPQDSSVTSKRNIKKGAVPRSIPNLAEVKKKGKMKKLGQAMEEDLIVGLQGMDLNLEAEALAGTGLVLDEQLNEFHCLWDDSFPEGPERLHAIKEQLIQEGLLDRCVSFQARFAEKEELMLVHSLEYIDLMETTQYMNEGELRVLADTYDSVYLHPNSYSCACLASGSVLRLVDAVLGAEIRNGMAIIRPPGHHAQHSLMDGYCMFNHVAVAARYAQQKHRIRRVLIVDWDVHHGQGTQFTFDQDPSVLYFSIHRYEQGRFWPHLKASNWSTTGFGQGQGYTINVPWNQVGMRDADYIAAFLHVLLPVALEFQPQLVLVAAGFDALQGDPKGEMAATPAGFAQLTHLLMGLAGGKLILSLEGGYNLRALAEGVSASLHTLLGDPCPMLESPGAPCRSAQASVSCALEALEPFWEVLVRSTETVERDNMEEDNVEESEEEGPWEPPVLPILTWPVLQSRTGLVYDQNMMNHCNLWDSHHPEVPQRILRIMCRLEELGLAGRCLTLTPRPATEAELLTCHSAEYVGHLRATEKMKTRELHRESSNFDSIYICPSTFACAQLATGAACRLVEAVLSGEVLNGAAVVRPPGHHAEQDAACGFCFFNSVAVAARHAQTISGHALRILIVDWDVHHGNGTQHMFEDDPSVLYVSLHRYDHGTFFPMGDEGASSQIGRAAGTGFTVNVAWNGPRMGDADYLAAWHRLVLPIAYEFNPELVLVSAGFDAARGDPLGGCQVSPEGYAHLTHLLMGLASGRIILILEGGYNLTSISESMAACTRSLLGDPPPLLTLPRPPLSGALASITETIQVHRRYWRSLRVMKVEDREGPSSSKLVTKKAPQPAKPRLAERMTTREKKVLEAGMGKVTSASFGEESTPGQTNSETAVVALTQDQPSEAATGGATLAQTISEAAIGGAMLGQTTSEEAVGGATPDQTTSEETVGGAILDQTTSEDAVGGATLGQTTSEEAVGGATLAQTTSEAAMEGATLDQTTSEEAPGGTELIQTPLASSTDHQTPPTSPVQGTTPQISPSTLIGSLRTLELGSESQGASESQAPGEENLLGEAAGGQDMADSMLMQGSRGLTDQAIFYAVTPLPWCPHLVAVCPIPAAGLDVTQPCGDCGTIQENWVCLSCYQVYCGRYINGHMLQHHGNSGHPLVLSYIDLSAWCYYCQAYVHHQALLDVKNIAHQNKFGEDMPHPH

HDAC10 = molecular target: T3, HDAC10 (Homo sapiens, UniProt Q969S8); assay: fluorescence HDAC isoenzyme activity assay; assay type: biochemical
T3 sequence (Q969S8 1-669): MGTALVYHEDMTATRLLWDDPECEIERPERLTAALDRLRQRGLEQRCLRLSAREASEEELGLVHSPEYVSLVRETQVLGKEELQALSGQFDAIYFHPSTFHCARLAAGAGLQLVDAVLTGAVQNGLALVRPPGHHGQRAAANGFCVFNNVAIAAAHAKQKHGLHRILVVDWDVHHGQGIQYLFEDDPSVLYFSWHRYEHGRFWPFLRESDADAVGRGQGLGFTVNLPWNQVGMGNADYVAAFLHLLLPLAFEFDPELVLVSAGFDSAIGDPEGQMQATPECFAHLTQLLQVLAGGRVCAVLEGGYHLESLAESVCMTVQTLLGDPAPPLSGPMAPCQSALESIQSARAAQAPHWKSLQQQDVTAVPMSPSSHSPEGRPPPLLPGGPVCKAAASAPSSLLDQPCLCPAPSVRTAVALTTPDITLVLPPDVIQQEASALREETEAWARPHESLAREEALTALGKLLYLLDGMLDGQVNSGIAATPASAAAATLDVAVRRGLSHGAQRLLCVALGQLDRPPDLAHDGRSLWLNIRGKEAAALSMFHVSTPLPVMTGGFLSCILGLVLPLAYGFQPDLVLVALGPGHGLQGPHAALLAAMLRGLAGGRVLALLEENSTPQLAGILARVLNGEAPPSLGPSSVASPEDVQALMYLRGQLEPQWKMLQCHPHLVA

HDAC2 = HDAC2 (Homo sapiens, UniProt Q92769); assay: fluorescence HDAC isoenzyme activity assay; assay type: biochemical
Sequence of HDAC2 (Q92769 whole entry): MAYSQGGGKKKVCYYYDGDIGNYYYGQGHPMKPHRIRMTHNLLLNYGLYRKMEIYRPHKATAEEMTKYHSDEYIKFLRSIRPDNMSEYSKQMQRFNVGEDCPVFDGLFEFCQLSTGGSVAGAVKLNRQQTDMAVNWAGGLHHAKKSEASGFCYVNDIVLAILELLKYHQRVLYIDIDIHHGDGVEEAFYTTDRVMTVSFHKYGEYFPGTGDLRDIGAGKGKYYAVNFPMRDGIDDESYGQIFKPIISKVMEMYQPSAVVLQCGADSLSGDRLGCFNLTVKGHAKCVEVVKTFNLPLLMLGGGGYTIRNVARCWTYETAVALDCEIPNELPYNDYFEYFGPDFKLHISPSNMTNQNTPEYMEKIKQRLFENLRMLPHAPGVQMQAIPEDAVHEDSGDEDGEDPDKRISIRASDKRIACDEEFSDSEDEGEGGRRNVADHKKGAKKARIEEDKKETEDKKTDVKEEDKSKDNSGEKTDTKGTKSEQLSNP

HDAC3 = HDAC3 (Homo sapiens, UniProt O15379); assay: fluorescence HDAC isoenzyme activity assay; assay type: biochemical
Sequence of HDAC3 (O15379 whole entry): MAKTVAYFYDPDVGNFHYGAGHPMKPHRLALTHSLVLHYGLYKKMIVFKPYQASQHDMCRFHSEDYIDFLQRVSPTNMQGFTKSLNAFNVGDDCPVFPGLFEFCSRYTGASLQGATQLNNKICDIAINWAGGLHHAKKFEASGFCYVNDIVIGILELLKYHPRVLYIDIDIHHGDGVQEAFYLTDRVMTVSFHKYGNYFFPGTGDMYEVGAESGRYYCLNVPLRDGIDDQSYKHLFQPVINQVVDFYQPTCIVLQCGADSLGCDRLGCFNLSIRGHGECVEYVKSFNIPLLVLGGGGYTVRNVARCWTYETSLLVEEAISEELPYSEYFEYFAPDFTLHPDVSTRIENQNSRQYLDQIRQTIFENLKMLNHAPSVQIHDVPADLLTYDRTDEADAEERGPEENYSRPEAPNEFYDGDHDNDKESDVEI

HDAC1 = HDAC1 (Homo sapiens, UniProt Q13547); assay: fluorescence HDAC isoenzyme activity assay; assay type: biochemical
Sequence of HDAC1 (Q13547 whole entry): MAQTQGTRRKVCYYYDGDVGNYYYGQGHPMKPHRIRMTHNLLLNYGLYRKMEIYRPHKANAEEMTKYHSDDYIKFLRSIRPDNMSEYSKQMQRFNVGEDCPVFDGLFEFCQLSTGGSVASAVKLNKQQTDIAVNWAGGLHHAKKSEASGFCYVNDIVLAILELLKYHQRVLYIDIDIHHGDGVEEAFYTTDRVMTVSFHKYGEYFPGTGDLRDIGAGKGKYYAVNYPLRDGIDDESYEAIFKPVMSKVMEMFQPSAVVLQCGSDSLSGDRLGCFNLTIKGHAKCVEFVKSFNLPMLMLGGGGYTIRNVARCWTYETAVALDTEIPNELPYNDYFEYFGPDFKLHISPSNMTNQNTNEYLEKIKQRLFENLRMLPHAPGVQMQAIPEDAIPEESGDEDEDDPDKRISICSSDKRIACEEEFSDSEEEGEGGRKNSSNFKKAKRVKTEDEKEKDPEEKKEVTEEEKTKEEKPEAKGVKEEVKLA

HDAC8 = molecular target: T4, HDAC8 (Homo sapiens, UniProt Q9BY41); assay: biochemical; parameters: Fluorescence HDAC isoenzyme deacetylase activity assay, excitation 360 nm, emission 460 nm
T4 sequence (Q9BY41 1-377): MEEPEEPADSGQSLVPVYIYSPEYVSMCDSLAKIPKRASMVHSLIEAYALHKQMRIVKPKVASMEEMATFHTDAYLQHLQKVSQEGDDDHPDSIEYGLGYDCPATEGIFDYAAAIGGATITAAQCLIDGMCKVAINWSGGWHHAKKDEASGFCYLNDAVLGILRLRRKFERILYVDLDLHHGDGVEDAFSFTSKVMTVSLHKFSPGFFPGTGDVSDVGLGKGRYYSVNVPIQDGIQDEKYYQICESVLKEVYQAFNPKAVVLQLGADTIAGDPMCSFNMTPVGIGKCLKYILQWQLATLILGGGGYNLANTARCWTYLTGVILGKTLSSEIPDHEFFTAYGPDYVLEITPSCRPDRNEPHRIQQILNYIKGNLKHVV
Protocol: HDAC activity assays were performed as previously reported. The fluorescence signal was measured using a SpectraMax i3x fluorimeter (Molecular Devices Korea) with SoftMax Pro software at an excitation wavelength of 360 nm and an emission wavelength of 460 nm. […] We conducted total HDAC activity assays to assess the effect of martinostat on the deacetylase activity in vitro.

- IC50 (HDAC11): 34 ± 1 nM
- IC50 (HDAC6): 70 ± 7 nM
- IC50 (HDAC10): 72 ± 7 nM
- IC50 (HDAC2): 61 ± 7 nM
- IC50 (HDAC3): 79 ± 8 nM
- IC50 (HDAC1): 80 ± 3 nM
- IC50 (HDAC8): 1650 ± 155 nM
SMILES: CN(Cc1ccc(/C=C/C(=O)NO)cc1)CC12CC3CC(CC(C3)C1)C2 [martinostat]
